Measurements taken from patent US20200017752A1, “Use Of A Composition Containing At Least One Biodegradable Sugar-Amide-Compound In Combination With At Least One Sulfur-Based Synergist For Corrosion Inhibition Of A Metallic Equipment In Oilfield Applications” (Clariant International Ltd., priority 2016, published 2020).

Columns and labels:
[1] = OECD 306 biodegradation
[2] = Corrosion test, rotating cylinder electrode (RCE), LPR; settings: 150° F., 2000 RPM, synthetic brine, 100% CO2, 12 ppm total inhibitor, vs 2 hr baseline
Text: In order to evaluate the corrosion inhibition efficacy of the formulations, two different test methods were employed: rotating cylinder electrode (RCE) tests and high pressure, high temperature (HPHT) autoclave weight loss tests. For all testing, the following standard brine composition was used (as outlined in table 3):
A gas composition of 100% CO2 was used throughout testing.
The metallurgy of the coupons tested was C1018 carbon steel for RCE testing and HPHT autoclave testing. Coupons were polished mechanically using 320 grit silicon-carbide (SiC) paper, 400 grit SiC paper, then 600 grit SIC paper and rinsed with water then acetone prior to testing.
The rotating cylinder electrode (RCE) tests were conducted in Pyrex™ glass reaction kettles that were heated to 150° F. The testing solution was comprised of 900 mL of brine. The electrode rotation rate was set at 2000 RPM, which generated a wall shear stress of 7.0 Pa. Linear polarization resistance (LPR) measurements were made with a Gamry electrochemical measurement system. The working electrode was made of a 1018 carbon steel (CS) cylinder with a surface area of 3.16 cm^2. A Hastelloy C276 electrode was used as a pseudo-reference, and a titanium rod was used as the counter electrode. […] The baseline corrosion rate corresponds to the blank corrosion value. Upon completion of the tests, the electrodes were cleaned in an inhibited acid bath according to ASTM G1 C.3.5, and weighed to 0.1 mg.

[3] = test system: Algae; test: Aquatic toxicity testing, 72 hr Algae EC50; format: cell-based
Experimental: (§1) Firstly the environmental data were determined according to OECD 306 biodegradability and aquatic toxicity testing on the glucamides and the result is outlined in Tables 1 and 2.

[4] = Marine BODIS biodegradation
Experimental: as §1

Row | SMILES | OECD 306 biodegradation Day 7 [1] | OECD 306 biodegradation Day 14 [1] | OECD 306 biodegradation Day 21 [1] | OECD 306 biodegradation Day 28 [1] | Protection 2 hr after Cl dose [2] | Protection Final 3 hr [2] | 72 hr Algae EC50, Definitive result [3] | 72 hr Algae EC50, Range-finding result [3] | Marine BODIS biodegradation Day 7 [4] | Marine BODIS biodegradation Day 14 [4] | Marine BODIS biodegradation Day 21 [4] | Marine BODIS biodegradation Day 28 [4]
1 | N.O=C(O)CS [ATG, Ammonium Thioglycolate] | 9% | 20% | 33% | 39% | 71.8% | 91.4% | – | – | – | – | – | –
2 | N.N.O=S(O)(O)=S [ATS, Ammoniumthiosulfate] | – | – | – | – | 75.6% | 91.2% | – | – | – | – | – | –
3 | CCCCCCCCCC(=O)N(C)CC(O)C(O)C(O)C(O)CO (centres unmarked) [Glucamide #1] | 15% | 25% | 33% | 31% | 72.1% | 92.7% | 165.24 µg/mL | 335.40 µg/mL | – | – | – | –
4 | CC(C)CCC(C)CCC(C)CC(=O)N(C)CC(O)C(O)C(O)C(O)CO (centres unmarked) [Glucamide #2] | – | – | – | – | 79.1% | 93.8% | – | – | – | – | – | –
5 | CCCCCCCCCC(=O)N(C)CC1OC(CO)C(O)C1O (centres unmarked) [Glucamide #3] | – | – | – | – | 73.4% | 93.5% | – | – | – | – | – | –
6 | CC(C)CCC(C)CCC(C)CC(=O)N(C)CC1OC(CO)C(O)C1O (centres unmarked) [Glucamide #4] | – | – | – | – | 76.0% | 94.3% | – | – | – | – | – | –
7 | CCCCCCCC/C=C\CCCCCCCC(=O)N(C)CC(O)C(O)C(O)C(O)CO (centres unmarked) [Glucamide #5] | – | – | – | – | 75.7% | 94.0% | 4.55 µg/mL | 6.199 µg/mL | 23% | 33% | 37% | 42%
8 | CCCCCCCC/C=C\CCCCCCCC(=O)N(C)CC1OC(CO)C(O)C1O (centres unmarked) [Glucamide #6] | – | – | – | – | 76.7% | 94.2% | – | – | – | – | – | –
9 | OCCS [MET, Mercaptoethanol] | 5% | 6% | 8% | 17% | 74.4% | 91.4% | – | – | – | – | – | –
10 | CCCCCCCC/C=C\CCCCCCCCN[C@@H](CCSC)C(=O)O [OMet, N-Oleyl-Methionine] | 60% | 60% | 60% | 60% | 77.6% | 92.7% | – | – | – | – | – | –
11 | O=C([O-])c1ccccc1.[Na+] [Reference, sodium benzoate, reference compound] | 78% | 74% | 86% | 68% | – | – | – | – | 66% | 77% | 81% | 83%
12 | NC(N)=S [TU, Thiourea] | 19% | 32% | 20% | 55% | – | – | – | – | – | – | – | –
